Source: PubChem BioAssay (NCI)
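Five compound concentrations were applied to cells in 96-well plates for 48 hours; endpoints were derived by simple linear interpolation of the resulting dose-response curve. TGI denotes the concentration required for complete inhibition of growth.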

Legend:
Assay in all cases: growth of human tumour cells (NCI), 48 h
[1] = test system: 786-0 renal
[2] = test system: A498 renal
[3] = test system: A549 NSCLC
[4] = test system: ACHN renal
[5] = test system: CAKI-1 renal
[6] = test system: CCRF-CEM leukemia
[7] = test system: COLO 205 colon
[8] = test system: DLD-1 colon
[9] = test system: DMS 114 small cell lung
[10] = test system: DMS 273 small cell lung
[11] = test system: EKVX NSCLC
[12] = test system: HCC-2998 colon
[13] = test system: HCT-116 colon
[14] = test system: HCT-15 colon
[15] = test system: HL-60(TB) leukemia
[16] = test system: HOP-18 NSCLC
[17] = test system: HOP-62 NSCLC
[18] = test system: HOP-92 NSCLC
[19] = test system: HT29 colon
[20] = test system: IGROV1 ovarian
[21] = test system: K-562 leukemia
[22] = test system: KM12 colon
[23] = test system: KM20L2 colon
[24] = test system: LOX IMVI melanoma
[25] = test system: LXFL 529 NSCLC
[26] = test system: M14 melanoma
[27] = test system: M19-MEL melanoma
[28] = test system: MALME-3M melanoma
[29] = test system: MOLT-4 leukemia
[30] = test system: NCI-H226 lung
[31] = test system: NCI-H23 lung
[32] = test system: NCI-H460 lung
[33] = test system: NCI-H522 lung
[34] = test system: OVCAR-3 ovarian
[35] = test system: OVCAR-4 ovarian
[36] = test system: OVCAR-5 ovarian
[37] = test system: OVCAR-8 ovarian
[38] = test system: RPMI-8226 leukemia
[39] = test system: RXF 393 renal
[40] = test system: SF-268 CNS
[41] = test system: SF-295 CNS
[42] = test system: SF-539 CNS
[43] = test system: SK-MEL-2 melanoma
[44] = test system: SK-MEL-28 melanoma
[45] = test system: SK-MEL-5 melanoma
[46] = test system: SK-OV-3 ovarian
[47] = test system: SN12C renal
[48] = test system: SNB-19 CNS
[49] = test system: SNB-75 CNS
[50] = test system: SNB-78 CNS
[51] = test system: SR leukemia
[52] = test system: SW-620 colon
[53] = test system: TK-10 renal
[54] = test system: U251 CNS
[55] = test system: UACC-257 melanoma
[56] = test system: UACC-62 melanoma
[57] = test system: UO-31 renal
[58] = test system: XF 498 CNS

## NS(=O)(=O)c1ccc(NC2=CC(=O)C(=O)c3ccccc32)cc1
[1]
  TGI: > 100 µM
[2]
  TGI: > 100 µM
[3]
  TGI: > 100 µM
[4]
  TGI: > 100 µM
[5]
  TGI: > 100 µM
[6]
  TGI: > 100 µM
[7]
  TGI: > 100 µM
[8]
  TGI: > 100 µM
[9]
  TGI: > 100 µM
[10]
  TGI: > 100 µM
[11]
  TGI: > 100 µM
[12]
  TGI: > 100 µM
[13]
  TGI: > 100 µM
[14]
  TGI: > 100 µM
[15]
  TGI: > 100 µM
[16]
  TGI: > 100 µM
[17]
  TGI: > 100 µM
[18]
  TGI: > 100 µM
[19]
  TGI: > 100 µM
[20]
  TGI: > 100 µM
[21]
  TGI: > 100 µM
[22]
  TGI: > 100 µM
[23]
  TGI: > 100 µM
[24]
  TGI: > 100 µM
[25]
  TGI: > 100 µM
[26]
  TGI: > 100 µM
[27]
  TGI: > 100 µM
[28]
  TGI: > 100 µM
[29]
  TGI: > 100 µM
[30]
  TGI: > 100 µM
[31]
  TGI: > 100 µM
[32]
  TGI: > 100 µM
[33]
  TGI: > 100 µM
[34]
  TGI: > 100 µM
[35]
  TGI: > 100 µM
[36]
  TGI: > 100 µM
[37]
  TGI: > 100 µM
[38]
  TGI: > 100 µM
[39]
  TGI: > 100 µM
[40]
  TGI: > 100 µM
[41]
  TGI: > 100 µM
[42]
  TGI: > 100 µM
[43]
  TGI: > 100 µM
[44]
  TGI: > 100 µM
[45]
  TGI: > 100 µM
[46]
  TGI: > 100 µM
[47]
  TGI: > 100 µM
[48]
  TGI: > 100 µM
[49]
  TGI: > 100 µM
[50]
  TGI: > 100 µM
[51]
  TGI: > 100 µM
[52]
  TGI: > 100 µM
[53]
  TGI: > 100 µM
[54]
  TGI: > 100 µM
[55]
  TGI: > 100 µM
[56]
  TGI: > 100 µM
[57]
  TGI: > 100 µM

## COC(=O)/C(=N\Nc1nc(=S)[nH]n1N)C(C#N)c1ccccc1 (stereo unspecified)
[1]
  TGI: > 100 µM
[2]
  TGI: > 100 µM
[3]
  TGI: > 100 µM
[4]
  TGI: > 100 µM
[6]
  TGI: > 100 µM
[7]
  TGI: > 100 µM
[8]
  TGI: > 100 µM
[11]
  TGI: > 100 µM
[12]
  TGI: > 100 µM
[13]
  TGI: > 100 µM
[14]
  TGI: > 100 µM
[15]
  TGI: > 100 µM
[16]
  TGI: > 100 µM
[17]
  TGI: > 100 µM
[19]
  TGI: > 100 µM
[20]
  TGI: > 100 µM
[21]
  TGI: > 100 µM
[22]
  TGI: > 100 µM
[23]
  TGI: > 100 µM
[24]
  TGI: > 100 µM
[25]
  TGI: > 100 µM
[26]
  TGI: > 100 µM
[27]
  TGI: > 100 µM
[28]
  TGI: > 100 µM
[29]
  TGI: > 100 µM
[30]
  TGI: > 100 µM
[31]
  TGI: > 100 µM
[32]
  TGI: > 100 µM
[33]
  TGI: > 100 µM
[34]
  TGI: > 100 µM
[35]
  TGI: > 100 µM
[36]
  TGI: > 100 µM
[37]
  TGI: > 100 µM
[38]
  TGI: > 100 µM
[39]
  TGI: > 100 µM
[40]
  TGI: > 100 µM
[43]
  TGI: > 100 µM
[44]
  TGI: > 100 µM
[45]
  TGI: > 100 µM
[46]
  TGI: > 100 µM
[47]
  TGI: > 100 µM
[48]
  TGI: > 100 µM
[49]
  TGI: > 100 µM
[50]
  TGI: > 100 µM
[52]
  TGI: > 100 µM
[53]
  TGI: > 100 µM
[54]
  TGI: > 100 µM
[55]
  TGI: > 100 µM
[56]
  TGI: > 100 µM
[57]
  TGI: > 100 µM

## O=C1CCC2CC(C(=O)c3ccccc3)CCC2CN1 (stereo unspecified) (tested in a mixture with another compound)
[1]
  TGI: > 100 µM
[3]
  TGI: > 100 µM
[4]
  TGI: > 100 µM
[5]
  TGI: > 100 µM
[6]
  TGI: > 100 µM
[7]
  TGI: > 100 µM
[8]
  TGI: > 100 µM
[9]
  TGI: > 100 µM
[10]
  TGI: > 100 µM
[11]
  TGI: > 100 µM
[12]
  TGI: > 100 µM
[13]
  TGI: > 100 µM
[14]
  TGI: > 100 µM
[15]
  TGI: > 100 µM
[16]
  TGI: > 100 µM
[17]
  TGI: > 100 µM
[19]
  TGI: > 100 µM
[20]
  TGI: > 100 µM
[21]
  TGI: > 100 µM
[22]
  TGI: > 100 µM
[23]
  TGI: > 100 µM
[25]
  TGI: > 100 µM
[26]
  TGI: > 100 µM
[27]
  TGI: > 100 µM
[28]
  TGI: > 100 µM
[29]
  TGI: > 100 µM
[30]
  TGI: > 100 µM
[31]
  TGI: > 100 µM
[32]
  TGI: > 100 µM
[33]
  TGI: > 100 µM
[34]
  TGI: > 100 µM
[35]
  TGI: > 100 µM
[36]
  TGI: > 100 µM
[37]
  TGI: > 100 µM
[38]
  TGI: > 100 µM
[39]
  TGI: > 100 µM
[40]
  TGI: > 100 µM
[41]
  TGI: > 100 µM
[42]
  TGI: > 100 µM
[43]
  TGI: > 100 µM
[44]
  TGI: > 100 µM
[45]
  TGI: > 100 µM
[46]
  TGI: > 100 µM
[47]
  TGI: > 100 µM
[48]
  TGI: > 100 µM
[49]
  TGI: > 100 µM
[50]
  TGI: > 100 µM
[51]
  TGI: > 100 µM
[52]
  TGI: > 100 µM
[54]
  TGI: > 100 µM
[55]
  TGI: > 100 µM
[56]
  TGI: > 100 µM
[57]
  TGI: > 100 µM

## CC(=O)NC1=C(NCCN(C)C)C(=O)c2ccccc2C1=O
[1]
  TGI: > 50 µM
[3]
  TGI: 48.8 µM
[4]
  TGI: > 50 µM
[6]
  TGI: > 50 µM
[7]
  TGI: 17.7 µM
[8]
  TGI: > 50 µM
[10]
  TGI: 27.6 µM
[11]
  TGI: > 50 µM
[12]
  TGI: > 50 µM
[13]
  TGI: 18.6 µM
[14]
  TGI: 20.5 µM
[15]
  TGI: 22.5 µM
[17]
  TGI: > 50 µM
[19]
  TGI: 38.6 µM
[20]
  TGI: > 50 µM
[21]
  TGI: > 50 µM
[22]
  TGI: > 50 µM
[23]
  TGI: > 50 µM
[24]
  TGI: > 50 µM
[25]
  TGI: > 50 µM
[26]
  TGI: > 50 µM
[27]
  TGI: 14.3 µM
[28]
  TGI: 14.3 µM
[29]
  TGI: > 50 µM
[30]
  TGI: > 50 µM
[31]
  TGI: 27.8 µM
[32]
  TGI: > 50 µM
[33]
  TGI: 23.8 µM
[34]
  TGI: > 50 µM
[35]
  TGI: 17.7 µM
[37]
  TGI: 31.6 µM
[39]
  TGI: > 50 µM
[40]
  TGI: > 50 µM
[41]
  TGI: > 50 µM
[42]
  TGI: 34.4 µM
[43]
  TGI: > 50 µM
[44]
  TGI: > 50 µM
[45]
  TGI: 14.1 µM
[46]
  TGI: > 50 µM
[47]
  TGI: 27.8 µM
[48]
  TGI: > 50 µM
[49]
  TGI: > 50 µM
[50]
  TGI: > 50 µM
[51]
  TGI: > 50 µM
[52]
  TGI: > 50 µM
[53]
  TGI: > 50 µM
[54]
  TGI: 29 µM
[55]
  TGI: 16.8 µM
[56]
  TGI: 22.1 µM
[57]
  TGI: > 50 µM
[58]
  TGI: 35.1 µM
